Results published in ChEMBL document CHEMBL1149146, “Synthesis and biological evaluation of new 1,2-dihydro-4-hydroxy-2-oxo-3-quinolinecarboxamides for treatment of autoimmune disorders: structure-activity relationship” (2004).

Key:
Assay type in all cases: functional
Mus musculus [1] = assay: Inhibition of acute experimental autoimmune encephalomyelitis (aEAE) induced in SJL/N mice at a dose of 1 mg/kg/day, (po)
Mus musculus [2] = assay: Inhibition of acute experimental autoimmune encephalomyelitis in SJL/N mice by 0.2 mg/kg/day p.o.; conditions: route oral
Mus musculus [3] = assay: Inhibition of acute experimental autoimmune encephalomyelitis in SJL/N mice by 5 mg/kg/day p.o.; conditions: route oral
Mus musculus [4] = assay: Inhibition of acute experimental autoimmune encephalomyelitis (aEAE) induced in SJL/N mice at a dose of 0.2 mg/kg/day, (po) was determined; Inactive
Mus musculus [5] = assay: Inhibition of acute experimental autoimmune encephalomyelitis in SJL/N mice by 1 mg/kg/day p.o./s.c.; conditions: route oral
Mus musculus [6] = assay: Inhibition of acute experimental autoimmune encephalomyelitis in SJL/N mice by 0.2 mg/kg/day p.o./s.c.; conditions: po
Mus musculus [7] = assay: Inhibition of acute experimental autoimmune encephalomyelitis in SJL/N mice by 5 mg/kg/day p.o./s.c.; conditions: route oral
Mus musculus [8] = assay: Inhibition of acute experimental autoimmune encephalomyelitis (aEAE) induced in SJL/N mice at a dose of 1 mg/kg/day, (po) was determined; Inactive
Mus musculus [9] = assay: Inhibition of acute experimental autoimmune encephalomyelitis (aEAE) induced in SJL/N mice at a dose of 5 mg/kg/day, (sc) was determined; Inactive

| SMILES | inhibition in vivo at 1 mg/kg/day (Mus musculus [1]) | inhibition in vivo at 0.2 mg/kg/day (Mus musculus [2]) | inhibition in vivo at 5 mg/kg/day (Mus musculus [3]) | inhibition in vivo at 1 mg/kg/day (Mus musculus [5]) | inhibition in vivo at 0.2 mg/kg/day (Mus musculus [6]) | inhibition in vivo at 5 mg/kg/day (Mus musculus [7]) | also measured |
| --- | --- | --- | --- | --- | --- | --- | --- |
| CCN(C(=O)c1c(O)c2c(SC)cccc2n(C)c1=O)c1ccccc1 | 73% | 51% | 99% | – | – | – | – |
| COc1cccc2c1c(O)c(C(=O)N(C)c1ccccc1Cl)c(=O)n2C | 50% | – | 68% | – | – | – | inhibition in vivo at 0.2 mg/kg/day (Mus musculus [4]): < 35% |
| COc1cccc2c1c(O)c(C(=O)N(C)c1cccc(Oc3ccccc3)c1)c(=O)n2C | – | – | – | 63% | 47% | 90% | – |
| COc1cccc2c1c(O)c(C(=O)N(C)c1cccc(Cl)c1)c(=O)n2C | 85% | 54% | 71% | – | – | – | – |
| CCOc1cccc2c1c(O)c(C(=O)N(C)c1ccccc1)c(=O)n2C | 40% | 44% | 76% | – | – | – | – |
| C=CCN(C(=O)c1c(O)c2c(Cl)cccc2n(C)c1=O)c1ccccc1 | 59% | – | 81% | – | – | – | – |
| Cc1ccc2c(c1)c(O)c(C(=O)N(C)c1ccccc1)c(=O)n2C | – | – | – | 79% | 62% | 100% | – |
| CCN(C(=O)c1c(O)c2c(F)cccc2n(C)c1=O)c1ccccc1 | 60% | – | – | – | – | – | – |
| COc1cccc2c1c(O)c(C(=O)N(C)c1ccccc1F)c(=O)n2C | 82% | 94% | 100% | – | – | – | – |
| COc1cccc2c1c(O)c(C(=O)N(C)c1ccccc1)c(=O)n2C | – | – | – | 95% | 79% | 96% | – |
| COc1cccc2c1c(O)c(C(=O)N(C)c1ccc(C(C)(C)C)cc1)c(=O)n2C | 84% | 60% | 98% | – | – | – | – |
| COc1cccc(N(C)C(=O)c2c(O)c3c(OC)cccc3n(C)c2=O)c1 | – | – | – | 90% | 35% | 85% | – |
| CCN(C(=O)c1c(O)c2cc(C)ccc2n(C)c1=O)c1ccccc1 | – | – | – | – | – | – | inhibition in vivo at 1 mg/kg/day (Mus musculus [8]): < 35%; inhibition in vivo at 0.2 mg/kg/day (Mus musculus [4]): < 35% |
| COc1cccc2c(O)c(C(=O)N(C)c3ccccc3)c(=O)n(C)c12 | – | – | – | – | – | – | inhibition in vivo at 5 mg/kg/day (Mus musculus [9]): < 35% |
| CN(C)c1cccc2c1c(O)c(C(=O)N(C)c1ccccc1)c(=O)n2C | 93% | 58% | 100% | – | – | – | – |
| COc1cccc2c1c(O)c(C(=O)N(C)c1ccc(F)cc1)c(=O)n2C | – | – | – | – | 92% | 93% | – |
| CN(C(=O)c1c(O)c2cccc(C(F)(F)F)c2n(C)c1=O)c1ccc(Cl)cc1Cl | – | – | – | – | – | – | inhibition in vivo at 5 mg/kg/day (Mus musculus [9]): < 35% |
| CCCN(C(=O)c1c(O)c2c(Cl)cccc2n(C)c1=O)c1ccccc1 | 94% | 49% | 100% | – | – | – | – |
| CCN(C(=O)c1c(O)c2cc(C(F)(F)F)ccc2n(C)c1=O)c1ccccc1 | 57% | – | – | – | – | – | inhibition in vivo at 0.2 mg/kg/day (Mus musculus [4]): < 35% |
| CN(C(=O)c1c(O)c2ccc(Cl)cc2n(C)c1=O)c1ccccc1 | – | – | – | – | – | – | inhibition in vivo at 5 mg/kg/day (Mus musculus [9]): < 35% |
| COc1ccc(N(C)C(=O)c2c(O)c3c(OC)cccc3n(C)c2=O)cc1 | 84% | 78% | – | – | – | – | – |
| CCN(C(=O)c1c(O)c2c(OC)cccc2n(C)c1=O)c1ccccc1 | – | – | – | 73% | 69% | 86% | – |
| CN(C(=O)c1c(O)c2c(C(F)(F)F)cccc2n(C)c1=O)c1ccccc1 | 99% | – | 100% | – | – | – | – |
| COc1cccc2c1c(O)c(C(=O)N(C)c1c(F)cccc1F)c(=O)n2C | 43% | 28% | – | – | – | – | – |
| COc1ccc2nc(O)c(C(=O)N(C)c3ccc(F)cc3)c(O)c2c1 | – | – | – | – | – | – | inhibition in vivo at 5 mg/kg/day (Mus musculus [9]): < 35% |

| SMILES | inhibition in vivo at 1 mg/kg/day (Mus musculus [1]) | inhibition in vivo at 0.2 mg/kg/day (Mus musculus [2]) | inhibition in vivo at 5 mg/kg/day (Mus musculus [3]) | inhibition in vivo at 1 mg/kg/day (Mus musculus [5]) | inhibition in vivo at 0.2 mg/kg/day (Mus musculus [6]) | inhibition in vivo at 5 mg/kg/day (Mus musculus [7]) | also measured |
| --- | --- | --- | --- | --- | --- | --- | --- |
| CC(C)N(C(=O)c1c(O)c2c(Cl)cccc2n(C)c1=O)c1ccccc1 | 54% | – | 70% | – | – | – | inhibition in vivo at 0.2 mg/kg/day (Mus musculus [4]): < 35% |
| COc1cccc2c1c(O)c(C(=O)N(C)c1ccc(Cl)cc1)c(=O)n2C | – | – | – | 70% | 77% | 89% | – |
| CN(C(=O)c1c(O)c2cc(F)ccc2n(C)c1=O)c1ccc(F)cc1 | – | – | – | 77% | – | 93% | – |
| CCN(C(=O)c1c(O)c2c(Br)cccc2n(C)c1=O)c1ccccc1 | 95% | 57% | – | – | – | – | – |
| CN(C(=O)c1c(O)c2cc(Cl)ccc2n(C)c1=O)c1ccccc1 | – | – | – | 100% | 81% | 100% | – |
| COc1ccc2c(O)c(C(=O)N(C)c3ccccc3)c(=O)n(C)c2c1 | – | – | – | – | – | – | inhibition in vivo at 5 mg/kg/day (Mus musculus [9]): < 35% |
| CN(C(=O)c1c(O)c2ccc(Oc3ccccc3)cc2n(C)c1=O)c1ccc(F)cc1 | – | – | – | – | – | – | inhibition in vivo at 5 mg/kg/day (Mus musculus [9]): < 35% |
| Cc1cccc2c1c(O)c(C(=O)N(C)c1ccccc1)c(=O)n2C | – | – | – | 100% | 95% | 97% | – |
| COc1cccc2c1c(O)c(C(=O)N(C)c1cccc(C(C)(C)C)c1)c(=O)n2C | 60% | 38% | 84% | – | – | – | – |
| COc1cccc2c1c(O)c(C(=O)N(C)c1cccc(F)c1F)c(=O)n2C | – | – | – | – | – | – | inhibition in vivo at 1 mg/kg/day (Mus musculus [8]): < 35%; inhibition in vivo at 0.2 mg/kg/day (Mus musculus [4]): < 35% |
| CN(C(=O)c1c(O)c2cc(OC(F)(F)F)ccc2n(C)c1=O)c1ccccc1 | – | – | – | 72% | 63% | 96% | – |
| CCc1cccc2c1c(O)c(C(=O)N(CC)c1ccccc1)c(=O)n2C [PAQUINIMOD] | 100% | 81% | – | – | – | – | – |
| COc1cccc2c1c(O)c(C(=O)N(C)c1cc(F)ccc1F)c(=O)n2C | 90% | 62% | 95% | – | – | – | – |
| CSc1cccc2c1c(O)c(C(=O)N(C)c1ccccc1)c(=O)n2C | 100% | 94% | 100% | – | – | – | – |
| CN(C(=O)c1c(O)c2c([N+](=O)[O-])cccc2n(C)c1=O)c1ccccc1 | 96% | 46% | 100% | – | – | – | – |
| COc1ccccc1N(C)C(=O)c1c(O)c2c(OC)cccc2n(C)c1=O | – | – | – | – | – | – | inhibition in vivo at 1 mg/kg/day (Mus musculus [8]): < 35%; inhibition in vivo at 0.2 mg/kg/day (Mus musculus [4]): < 35% |
| CN(C(=O)c1c(O)c2c(Cl)cccc2n(C)c1=O)c1ccccc1 | – | – | – | 99% | 91% | 100% | – |
| CN(C(=O)c1c(O)c2cc(C(F)(F)F)ccc2n(C)c1=O)c1ccccc1 | – | – | – | 100% | 67% | 100% | – |
| CCN(C(=O)c1c(O)c2c3c(ccc2n(C)c1=O)OCO3)c1ccccc1 | 75% | 58% | 99% | – | – | – | – |
| COc1cccc2c1c(O)c(C(=O)N(C)c1ccc(F)cc1F)c(=O)n2C | 88% | 76% | – | – | – | – | – |
| CCN(C(=O)c1c(O)c2c(Cl)cccc2n(C)c1=O)c1ccccc1 [LAQUINIMOD] | – | – | – | 92% | 66% | 96% | – |
| CCN(C(=O)c1c(O)c2cc(OC)ccc2n(C)c1=O)c1ccccc1 | – | – | – | 37% | 39% | 84% | – |
| COc1ccc2c(c1)c(O)c(C(=O)N(C)c1ccccc1)c(=O)n2C | – | – | – | 100% | 83% | 100% | – |
| CCN(C(=O)c1c(O)c2c(C(F)(F)F)cccc2n(C)c1=O)c1ccccc1 | 80% | 49% | – | – | – | – | – |
| CN(C(=O)c1c(O)c2ccccc2n(-c2ccccc2)c1=O)c1ccccc1 | – | – | – | – | – | – | inhibition in vivo at 5 mg/kg/day (Mus musculus [9]): < 35% |
